According to PubChem BioAssay AID1963965 (Molecular Pharmacology Branch, DTP, NCI, 2024):

Tested on: 996289-038-R-J1-PDC spheroid viability
Test: Anticancer human tumor 996289-038-R-J1-PDC patient-derived colon adenocarcinoma cell line growth inhibition [PI3K]
Conditions: spheroids with HUVEC and MSC; for IC50: curve of first compound; for viability, T/C: stronger effect = lower value
In short: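 Multi-cell spheroids combine tumor cells with HUVEC and human MSCs, treated with targeted agents alone or with inavolisib, alpelisib, duvelisib or copanlisib. Concentrations fall in half-log steps from at or near clinical Cmax, or from 10 microM where Cmax is unknown; viability read-out.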
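Also: spheroids exposed to compounds for seven days before viability read.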
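For viability, T/C in this document: luminescence used as a proxy for viable cell amount; percent viability relative to DMSO vehicle control as 100%.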

Work on `CC1(C)CCC(CN2CCN(c3ccc(C(=O)NS(=O)(=O)c4ccc(NCC5CCOCC5)c([N+](=O)[O-])c4)c(Oc4cnc5[nH]ccc5c4)c3)CC2)=C(c2ccc(Cl)cc2)C1` + COc1c(OCCCN2CCOCC2)ccc2c3n(c(=NC(=O)c4cnc(N)nc4)nc12)CCN3 yielded an IC50 (second compound 0.00316 µM) of 7.54 µM, an IC50 (second compound 0.01 µM) of 7.76 µM and an IC50 (second compound 0.0316 µM) of 5.77 µM. The IC50 (second compound 0.1 µM) was 4.2 µM, the IC50 (second compound 0.316 µM) was < 0.0316 µM and the IC50 (second compound 1 µM) was < 0.0316 µM. For the same molecule, the viability, T/C (second compound 0.00316 µM, first compound 0.0316 µM) was 88.5%, the viability, T/C (second compound 0.00316 µM, first compound 0.1 µM) was 97.1% and the viability, T/C (second compound 0.00316 µM, first compound 0.316 µM) was 94.2%. It also gave a viability, T/C (second compound 0.00316 µM, first compound 1 µM) of 110%, a viability, T/C (second compound 0.00316 µM, first compound 3.16 µM) of 106% and a viability, T/C (second compound 0.00316 µM, first compound 10 µM) of 34%. For the same molecule, the viability, T/C (second compound 0.01 µM, first compound 0.0316 µM) was 95.6%, the viability, T/C (second compound 0.01 µM, first compound 0.1 µM) was 88.6% and the viability, T/C (second compound 0.01 µM, first compound 0.316 µM) was 84.2%. The viability, T/C (second compound 0.01 µM, first compound 1 µM) was 97.7%, the viability, T/C (second compound 0.01 µM, first compound 3.16 µM) was 103% and the viability, T/C (second compound 0.01 µM, first compound 10 µM) was 37.6%. It also gave a viability, T/C (second compound 0.0316 µM, first compound 0.0316 µM) of 81.3%, a viability, T/C (second compound 0.0316 µM, first compound 0.1 µM) of 84.2% and a viability, T/C (second compound 0.0316 µM, first compound 0.316 µM) of 72.9%. The viability, T/C (second compound 0.0316 µM, first compound 1 µM) was 86.1%, the viability, T/C (second compound 0.0316 µM, first compound 3.16 µM) was 90.5% and the viability, T/C (second compound 0.0316 µM, first compound 10 µM) was 19.7%. The viability, T/C (second compound 0.1 µM, first compound 0.0316 µM) was 65%, the viability, T/C (second compound 0.1 µM, first compound 0.1 µM) was 62.5% and the viability, T/C (second compound 0.1 µM, first compound 0.316 µM) was 62.8%. For the same molecule, the viability, T/C (second compound 0.1 µM, first compound 1 µM) was 59.5%, the viability, T/C (second compound 0.1 µM, first compound 3.16 µM) was 65.2% and the viability, T/C (second compound 0.1 µM, first compound 10 µM) was 10.3%. For the same molecule, the viability, T/C (second compound 0.316 µM, first compound 0.0316 µM) was 40.4%, the viability, T/C (second compound 0.316 µM, first compound 0.1 µM) was 36.2% and the viability, T/C (second compound 0.316 µM, first compound 0.316 µM) was 33.9%. The viability, T/C (second compound 0.316 µM, first compound 1 µM) was 36.9%, the viability, T/C (second compound 0.316 µM, first compound 3.16 µM) was 38.6% and the viability, T/C (second compound 0.316 µM, first compound 10 µM) was 11.3%. The viability, T/C (second compound 1 µM, first compound 0.0316 µM) was 19.5%, the viability, T/C (second compound 1 µM, first compound 0.1 µM) was 19.5% and the viability, T/C (second compound 1 µM, first compound 0.316 µM) was 21.1%. The viability, T/C (second compound 1 µM, first compound 1 µM) was 23.3%, the viability, T/C (second compound 1 µM, first compound 3.16 µM) was 18.8% and the viability, T/C (second compound 1 µM, first compound 10 µM) was 6.87%.
